IC50 data for 27 molecules are collected here from US7875647B2, “Heteroaryl-pyrazole derivatives as cannabinoid CB1 receptor antagonists” (Green Cross Corporation, priority 2006, dated 2011).

The target of one assay is T1, Cannabinoid-1 receptor (CB1R) (Rattus norvegicus, UniProt P20272).
T1 construct: The tissue obtained from the brain of SD rats was homogenized; from tissue; host or cells: brain of SD rats (membrane pellet of the homogenate)
T1 sequence (P20272 whole entry): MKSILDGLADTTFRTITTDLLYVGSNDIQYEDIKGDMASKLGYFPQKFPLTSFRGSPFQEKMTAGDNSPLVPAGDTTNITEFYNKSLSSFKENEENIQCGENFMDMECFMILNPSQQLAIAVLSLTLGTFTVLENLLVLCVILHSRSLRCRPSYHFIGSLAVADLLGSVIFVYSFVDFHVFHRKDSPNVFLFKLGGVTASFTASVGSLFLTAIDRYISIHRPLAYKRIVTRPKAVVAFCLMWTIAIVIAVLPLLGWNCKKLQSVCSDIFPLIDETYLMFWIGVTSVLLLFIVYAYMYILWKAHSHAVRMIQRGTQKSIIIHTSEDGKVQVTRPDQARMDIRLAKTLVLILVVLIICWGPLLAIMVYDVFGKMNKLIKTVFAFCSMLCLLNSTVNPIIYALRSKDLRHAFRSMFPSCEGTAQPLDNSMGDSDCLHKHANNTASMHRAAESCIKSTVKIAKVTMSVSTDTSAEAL
In words: Cannabinoid-1 receptor (CB1R) binding affinity assay ([3H]CP-55940, rat CB-1 receptor binding protocol). The settings on record: IC50(nM), brain tissue of SD rats, [3H]CP-55940, 30° C. 60 min. The procedure: The tissue obtained from the brain of SD rats was homogenized with a Dounce homogenate system in TME (50 mM Tris, 3 mM MgCl2 and 1 mM EDTA, pH 7.4) at 4° C., and the homogenate was centrifuged at 48,000 g for 30 min. at 4° C. The pellet was resuspended in 5 ml of TME and the suspension was divided into aliquots and stored at −70° C. until its use in the following assay.
The tissue concentrations were determined by Bradford protein analysis, and 148 μl of brain tissue of the required concentration was added to the plate. The plate was covered and placed in a 30° C. incubator for 60 min, and then transformed on GF/B filtermat pretreated in polyethylenimine (PEI) using a cell harvester. Each filter was washed five times and dried at 60° C. for 1 hr. Then, the degree of radioactivity retained by the filter was measured using Wallac Microbeta™ (PerkinElmer Life Sciences, Inc., Massachusetts, U.S.A.) and the activity of the compound for inhibiting CB1 receptor was determined therefrom.
By IC50 is commonly meant the concentration that inhibits the measured activity by half. Take `CCc1c(-c2nnc(C3(c4ccccc4)CC3)o2)nn(-c2ccc(Cl)cc2Cl)c1-c1ccc(Br)cc1` [Example 177, 2-(5-(4-bromophenyl)-1-(2,4-dichlorophenyl)-4-ethyl-1H-pyrazol-3-yl)-5-(1-phenylcyclopropyl)-1,3,4-oxadiazole]: the IC50 was found to be 3.01 nM. With `CC(=O)OCc1c(-c2nnc(C3(c4ccc(Cl)cc4)CC3)o2)nn(-c2ccc(Cl)cc2Cl)c1-c1ccc(Cl)cc1` [Example 197, (5-(4-chlorophenyl)-3-(5-(1-(4-chlorophenyl)cyclopropyl)-1,3,4-oxadiazol-2-yl)-1-(2,4-dichlorophenyl)-1H-pyrazol-4-yl)methyl acetate], the IC50 was determined as 7.07 nM.

Still in this assay, the particulars now being: brain tissue of SD rats, [3H]CP-55940, 30° C. 60 min; read-out: IC50.
Turning to `CCc1c(-c2nnc(C3(c4ccccc4)CC3)o2)nn(-c2ccc(Cl)cc2Cl)c1-c1ccc(Cl)cc1` [Example 150, 2-(5-(4-chlorophenyl)-1-(2,4-dichlorophenyl)-4-ethyl-1H-pyrazol-3-yl)-5-(1-phenylcyclopropyl)-1,3,4-oxadiazole], the IC50 came out at 6.05 nM. Same read-out and setting: the result for `CCc1c(-c2nnc(C3(c4ccc(C)cc4)CC3)o2)nn(-c2ccc(Cl)cc2Cl)c1-c1ccc(Cl)cc1` [Example 151, 2-(5-(4-chlorophenyl)-1-(2,4-dichlorophenyl)-4-ethyl-1H-pyrazol-3-yl)-5-(1-p-tolylcyclopropyl)-1,3,4-oxadiazole] reads 7.05 nM; that for `CCc1c(-c2nnc(C3(c4ccc(OC)cc4)CC3)o2)nn(-c2ccc(Cl)cc2Cl)c1-c1ccc(Cl)cc1` [Example 152, 2-(5-(4-chlorophenyl)-1-(2,4-dichlorophenyl)-4-ethyl-1H-pyrazol-3-yl)-5-(1-(4-methoxyphenyl)cyclopropyl)-1,3,4-oxadiazole], 5.62 nM; that for `CCc1c(-c2nnc(C3(c4ccc(Cl)cc4Cl)CC3)o2)nn(-c2ccc(Cl)cc2Cl)c1-c1ccc(Cl)cc1` [Example 153, 2-(5-(4-chlorophenyl)-1-(2,4-dichlorophenyl)-4-ethyl-1H-pyrazol-3-yl)-5-(1-(2,4-dichlorophenyl)cyclopropyl)-1,3,4-oxadiazole], 5.83 nM. The same measure, in the same setting: the figure for `CCc1c(-c2nnc(C3(c4ccc(Cl)cc4)CCC3)o2)nn(-c2ccc(Cl)cc2Cl)c1-c1ccc(Cl)cc1` [Example 154, 2-(5-(4-chlorophenyl)-1-(2,4-dichlorophenyl)-4-ethyl-1H-pyrazol-3-yl)-5-(1-(4-chlorophenyl)cyclobutyl)-1,3,4-oxadiazole] is 7.42 nM; for `Cc1c(-c2nnc(C3(c4ccc(Cl)cc4)CCC3)o2)nn(-c2ccccc2Br)c1-c1ccc(Cl)cc1` [Example 159, 2-(1-(2-bromophenyl)-5-(4-chlorophenyl)-4-methyl-1H-pyrazol-3-yl)-5-(1-(4-chlorophenyl)cyclobutyl)-1,3,4-oxadiazole] it is 7.51 nM. With `Cc1c(-c2nnc(C3(c4ccc(Cl)cc4)CC3)o2)nn(-c2c(Cl)cccc2Cl)c1-c1ccc(Cl)cc1` [Example 161, 2-(5-(4-chlorophenyl)-1-(2,6-dichlorophenyl)-4-methyl-1H-pyrazol-3-yl)-5-(1-(4-chlorophenyl)cyclopropyl)-1,3,4-oxadiazole], the IC50 turned out to be 52.6 nM. As to `Cc1c(-c2nnc(C3(c4ccc(Cl)cc4)CCC3)o2)nn(-c2c(Cl)cccc2Cl)c1-c1ccc(Cl)cc1` [Example 162, 2-(5-(4-chlorophenyl)-1-(2,6-dichlorophenyl)-4-methyl-1H-pyrazol-3-yl)-5-(1-(4-chlorophenyl)cyclobutyl)-1,3,4-oxadiazole], the IC50 stood at 59.2 nM. Same read-out and setting: the result for `Cc1c(-c2nnc(C3(c4ccc(Cl)cc4)CC3)o2)nn(-c2cc(Cl)ccc2Cl)c1-c1ccc(Cl)cc1` [Example 167, 2-(5-(4-chlorophenyl)-1-(2,5-dichlorophenyl)-4-methyl-1H-pyrazol-3-yl)-5-(1-(4-chlorophenyl)cyclopropyl)-1,3,4-oxadiazole] reads 41.9 nM. The same measure, in the same setting: the figure for `Cc1c(-c2nnc(C3(c4ccc(Cl)cc4)CCC3)o2)nn(-c2cc(Cl)ccc2Cl)c1-c1ccc(Cl)cc1` [Example 168, 2-(5-(4-chlorophenyl)-1-(2,5-dichlorophenyl)-4-methyl-1H-pyrazol-3-yl)-5-(1-(4-chlorophenyl)cyclobutyl)-1,3,4-oxadiazole] is 200 nM. Take `COc1ccc(-c2c(C)c(-c3nnc(C4(c5ccc(OC)cc5)CC4)o3)nn2-c2ccc(Cl)cc2Cl)cc1` [Example 172, 2-(1-(2,4-dichlorophenyl)-5-(4-methoxyphenyl)-4-methyl-1H-pyrazol-3-yl)-5-(1-(4-methoxyphenyl)cyclopropyl)-1,3,4-oxadiazole]: the IC50 worked out at 17.9 nM.

As for `CCc1c(-c2nnc(C3(c4ccc(Cl)cc4Cl)CC3)o2)nn(-c2ccc(Cl)cc2Cl)c1-c1ccc(Br)cc1` [Example 174, 2-(5-(4-bromophenyl)-1-(2,4-dichlorophenyl)-4-ethyl-1H-pyrazol-3-yl)-5-(1-(2,4-dichlorophenyl)cyclopropyl)-1,3,4-oxadiazole], the IC50 came out at 6.97 nM.

With `CCc1c(-c2nnc(C3(c4ccc(OC)cc4)CC3)o2)nn(-c2ccc(Cl)cc2Cl)c1-c1ccc(Br)cc1` [Example 175, 2-(5-(4-bromophenyl)-1-(2,4-dichlorophenyl)-4-ethyl-1H-pyrazol-3-yl)-5-(1-(4-methoxyphenyl)cyclopropyl)-1,3,4-oxadiazole], the IC50 is 5.71 nM. The same measure, in the same setting: the figure for `CCc1c(-c2nnc(C3(c4ccc(C)cc4)CC3)o2)nn(-c2ccc(Cl)cc2Cl)c1-c1ccc(Br)cc1` [Example 176, 2-(5-(4-bromophenyl)-1-(2,4-dichlorophenyl)-4-ethyl-1H-pyrazol-3-yl)-5-(1-p-tolylcyclopropyl)-1,3,4-oxadiazole] is 4.47 nM; for `CC(C)c1c(-c2nnc(C3(c4ccc(Cl)cc4)CC3)o2)nn(-c2ccc(Cl)cc2Cl)c1-c1ccc(Cl)cc1` [Example 181, 2-(5-(4-chlorophenyl)-1-(2,4-dichlorophenyl)-4-isopropyl-1H-pyrazol-3-yl)-5-(1-(4-chlorophenyl)cyclopropyl)-1,3,4-oxadiazole] it is 9.72 nM; for `CC(C)c1c(-c2nnc(C3(c4ccc(Cl)cc4)CCC3)o2)nn(-c2ccc(Cl)cc2Cl)c1-c1ccc(Cl)cc1` [Example 182, 2-(5-(4-chlorophenyl)-1-(2,4-dichlorophenyl)-4-isopropyl-1H-pyrazol-3-yl)-5-(1-(4-chlorophenyl)cyclobutyl)-1,3,4-oxadiazole] it is 22.5 nM. Turning to `CCCc1c(-c2nnc(C3(c4ccc(Cl)cc4)CC3)o2)nn(-c2ccc(Cl)cc2Cl)c1-c1ccc(Cl)cc1` [Example 186, 2-(5-(4-chlorophenyl)-1-(2,4-dichlorophenyl)-4-propyl-1H-pyrazol-3-yl)-5-(1-(4-chlorophenyl)cyclopropyl)-1,3,4-oxadiazole], the IC50 was determined as 12.1 nM.

In the case of `CCCc1c(-c2nnc(C3(c4ccc(Cl)cc4)CCC3)o2)nn(-c2ccc(Cl)cc2Cl)c1-c1ccc(Cl)cc1` [Example 187, 2-(5-(4-chlorophenyl)-1-(2,4-dichlorophenyl)-4-propyl-1H-pyrazol-3-yl)-5-(1-(4-chlorophenyl)cyclobutyl)-1,3,4-oxadiazole], the 50% inhibitory concentration (IC50) was 11.1 nM. Regarding `CCc1c(-c2nnc(C3(c4ccccc4)CCCC3)o2)nn(-c2ccc(Cl)cc2Cl)c1-c1ccc(Br)cc1` [Example 188, 2-(5-(4-bromophenyl)-1-(2,4-dichlorophenyl)-4-ethyl-1H-pyrazol-3-yl)-5-(1-phenylcyclopentyl)-1,3,4-oxadiazole], the IC50 amounted to 15.5 nM.

Take `CC(C)c1c(-c2nnc(C3(C(F)(F)F)CC3)o2)nn(-c2ccc(Cl)cc2Cl)c1-c1ccc(Cl)cc1` [Example 190, 2-(5-(4-chlorophenyl)-1-(2,4-dichlorophenyl)-4-isopropyl-1H-pyrazol-3-yl)-5-(1-(trifluoromethyl)cyclopropyl)-1,3,4-oxadiazole]: the IC50 came to 15 nM. With `CCCc1c(-c2nnc(C3(C(F)(F)F)CC3)o2)nn(-c2ccc(Cl)cc2Cl)c1-c1ccc(Cl)cc1` [Example 191, 2-(5-(4-chlorophenyl)-1-(2,4-dichlorophenyl)-4-propyl-1H-pyrazol-3-yl)-5-(1-(trifluoromethyl)cyclopropyl)-1,3,4-oxadiazole], the 50% inhibitory concentration (IC50) amounted to 15 nM. Take `CC(=O)OCc1c(-c2nnc(C(C)(C)C)o2)nn(-c2ccc(Cl)cc2Cl)c1-c1ccc(Br)cc1` [Example 195, (5-(4-bromophenyl)-3-(5-tert-butyl-1,3,4-oxadiazol-2-yl)-1-(2,4-dichlorophenyl)-1H-pyrazol-4-yl)methyl acetate]: the half-maximal inhibitory concentration (IC50) is 12.1 nM. For the molecule `CC(=O)OCc1c(-c2nnc(C(C)(C)C)o2)nn(-c2ccc(Cl)cc2Cl)c1-c1ccc(Cl)cc1` [Example 196, (3-(5-tert-butyl-1,3,4-oxadiazol-2-yl)-5-(4-chlorophenyl)-1-(2,4-dichlorophenyl)-1H-pyrazol-4-yl)methyl acetate], the IC50 stood at 22.4 nM. For the molecule `CC(C)(C)c1nnc(-c2nn(-c3ccc(Cl)cc3Cl)c(-c3ccc(Cl)cc3)c2COC(=O)c2ccccc2)o1` [Example 198, (3-(5-tert-butyl-1,3,4-oxadiazol-2-yl)-5-(4-chlorophenyl)-1-(2,4-dichlorophenyl)-1H-pyrazol-4-yl)methyl benzoate], the IC50 was 68.8 nM. Same read-out and setting: the figure for `CC(C)(C)c1nnc(-c2nn(-c3ccc(Cl)cc3Cl)c(-c3ccc(Br)cc3)c2CO)o1` [Example 200, (5-(4-bromophenyl)-3-(5-tert-butyl-1,3,4-oxadiazol-2-yl)-1-(2,4-dichlorophenyl)-1H-pyrazol-4-yl)methanol] is 6.35 nM.
